The target in test [1] is T1, vanilloid receptor 1 (VR1/TRPV1) of the rat species (Rattus norvegicus, UniProt O35433).
T1 construct: The spinal column is removed from decapitated rats; from tissue; host or cells: primary cells dissociated from rat dorsal root ganglia
Put plainly: FLIPR Ca2+ influx assay on rat dorsal root ganglia cells (pharmacological method I). Format: cell-based. The following applies: table 4, capsaicin. The procedure, abridged: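 Primary rat dorsal root ganglion cells loaded with 2 μM Fluo-4, Ca2+ influx read on FLIPR as peak fluorescence. Triplicates, at least 3 independent experiments.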

In test [2] the target is VR1/TRPV1 receptor (Homo sapiens, UniProt Q8NER1). Put plainly: IC50 (human) after pH stimulus. The note with it: table 4. Format: cell-based.
Chain of VR1/TRPV1 receptor (Q8NER1 whole entry): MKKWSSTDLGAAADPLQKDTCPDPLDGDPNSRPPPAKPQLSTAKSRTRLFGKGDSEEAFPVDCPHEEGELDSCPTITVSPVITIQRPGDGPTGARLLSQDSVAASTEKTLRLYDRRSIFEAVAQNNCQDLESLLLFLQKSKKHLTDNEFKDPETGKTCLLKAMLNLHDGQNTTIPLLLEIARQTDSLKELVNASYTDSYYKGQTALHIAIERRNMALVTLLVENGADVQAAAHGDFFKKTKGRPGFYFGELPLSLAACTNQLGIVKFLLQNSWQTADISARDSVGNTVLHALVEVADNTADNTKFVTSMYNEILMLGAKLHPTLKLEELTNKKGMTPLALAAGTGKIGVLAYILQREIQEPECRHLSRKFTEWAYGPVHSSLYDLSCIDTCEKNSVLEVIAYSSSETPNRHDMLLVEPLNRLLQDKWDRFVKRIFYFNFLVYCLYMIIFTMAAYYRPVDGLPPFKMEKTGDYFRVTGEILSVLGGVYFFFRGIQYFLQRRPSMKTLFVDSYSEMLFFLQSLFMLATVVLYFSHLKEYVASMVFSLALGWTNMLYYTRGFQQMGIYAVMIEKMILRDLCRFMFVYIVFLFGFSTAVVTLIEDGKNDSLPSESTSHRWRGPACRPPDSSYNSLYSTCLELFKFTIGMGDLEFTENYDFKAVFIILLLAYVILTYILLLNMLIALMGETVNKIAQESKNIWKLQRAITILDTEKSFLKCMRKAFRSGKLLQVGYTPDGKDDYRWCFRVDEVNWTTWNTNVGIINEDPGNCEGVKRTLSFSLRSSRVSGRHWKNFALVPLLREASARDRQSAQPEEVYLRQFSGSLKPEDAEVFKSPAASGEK
Test [3] concerns cold allodynia after chronic constriction injury. Put plainly: Neuropathic pain in mice, Bennet model (chronic constriction injury, cold allodynia). The test is classed as in vivo. The following applies: mouse. The text has this: VI. Neuropathic Pain in Mice
The efficacy of compounds of general formula I in the treatment of neuropathic pain is investigated by using the Bennet modell (chronic constriction injury; Bennett and Xie, 1988, Pain 33: 87-107.
NMRI mice (weight 16 to 18 g) under ketavet-rompun anaesthesia are supplied with three loose ligatures of the right nervus ischiaticus. The animals develop an oversensitivity to cold at the position of the pad that is innervated by the injured nerve which—after a recovery period of one week—is quantified over a period of three weeks by using a metal plate that is cooled to 4° C. (cold allodynia). The animals are observed for a period of 2 minutes on this plate and the number of brisk withdrawal reactions of the injured nerve is counted. […] The group size is n=10, the stastical significance of efficacy against allodynia (*=p<0.05) is determined by analysis of variance with repeated measurements and post hoc analysis with Bonferroni adjustment.

Test [4] concerns capsaicin induced hypothermie. In words: Hypothermie assay in the mouse (capsaicin induced hypothermie). The test is classed as in vivo. The note with it: mouse, read-out: inhibition hypothermie (n = 5); for inhibition in vivo at 0.1 mg/kg: 0.1 mg/kg body weight po.

Like-named read-outs stand apart in the source and are kept apart here.

One may read the Ki as the dissociation constant of the complex between target and ligand, obtained from inhibition or displacement. The term IC50 denotes the point on the concentration scale where inhibition reaches its midpoint.

T1 sequence (O35433 whole entry): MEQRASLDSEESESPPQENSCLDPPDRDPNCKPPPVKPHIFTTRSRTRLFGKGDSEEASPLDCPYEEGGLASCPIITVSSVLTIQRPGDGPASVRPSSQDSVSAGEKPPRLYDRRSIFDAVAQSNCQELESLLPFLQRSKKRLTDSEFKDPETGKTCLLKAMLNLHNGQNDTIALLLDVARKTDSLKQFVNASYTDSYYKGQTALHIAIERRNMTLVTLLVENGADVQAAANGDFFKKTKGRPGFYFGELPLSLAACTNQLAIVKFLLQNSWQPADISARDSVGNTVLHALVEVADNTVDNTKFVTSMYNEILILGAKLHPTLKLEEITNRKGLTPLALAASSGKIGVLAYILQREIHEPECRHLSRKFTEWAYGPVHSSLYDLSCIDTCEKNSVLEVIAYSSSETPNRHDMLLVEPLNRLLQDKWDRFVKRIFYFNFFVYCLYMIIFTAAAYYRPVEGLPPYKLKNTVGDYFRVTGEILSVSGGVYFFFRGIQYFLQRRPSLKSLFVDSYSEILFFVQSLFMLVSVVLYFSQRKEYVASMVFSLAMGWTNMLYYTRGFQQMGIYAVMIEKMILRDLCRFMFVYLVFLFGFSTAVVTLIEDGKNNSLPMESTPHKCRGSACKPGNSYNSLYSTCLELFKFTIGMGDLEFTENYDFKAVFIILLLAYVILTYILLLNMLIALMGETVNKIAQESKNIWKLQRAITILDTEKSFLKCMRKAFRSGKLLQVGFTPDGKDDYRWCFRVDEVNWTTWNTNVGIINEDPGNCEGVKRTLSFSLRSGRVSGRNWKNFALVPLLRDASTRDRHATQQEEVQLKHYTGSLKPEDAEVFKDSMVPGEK

`CC(C(=O)NCc1ccc(C(F)(F)F)nc1OCCC(C)(C)C)c1ccc(NS(C)(=O)=O)c(F)c1` (stereo not drawn) [Example 125] showed a Ki in test [1] (Ki (rat) Cap.) of 1 nM. In test [2], this compound yielded an IC50 of 23.8 nM. The “inhibition Bennet model (n = 10)” value in test [3] (0.01 mg/kg body weight po) is 0.01 po 17%. The inhibition in vivo at 0.1 mg/kg in test [4] was determined as 5%.

With `Cc1ccc(Cl)cc1Nc1nc(C(F)(F)F)ccc1CNC(=O)C(C)c1ccc(NS(C)(=O)=O)c(F)c1` (stereo not drawn) [Example 136, N-[2-(5-chloro-2-methyl-phenylamino)-6-trifluoromethyl-pyridin-3-ylmethyl]-2-(3-fluoro-4-methylsulfonamido-phenyl)-propionamide], the inhibitory constant (Ki) in test [1] (read-out: Ki (rat) Cap.) was 8.3 nM. Besides, inhibition in test [2] was half-maximal at 140 nM (IC50). Further, in test [3] (0.01 mg/kg body weight po), the “inhibition Bennet model (n = 10)” value was 0.01 po 13%. For the same compound, the inhibition in vivo at 0.3 mg/kg in test [4] (0.3 mg/kg body weight po) was 43%.

Turning to `CC(C(=O)NCc1ccc(C(C)(C)C)nc1OC1CCCC1)c1ccc(NS(C)(=O)=O)c(F)c1` (stereo not drawn) [Example 234, N-(6-tert-butyl-2-cyclopentyloxy-pyridin-3-ylmethyl)-2-(3-fluoro-4-methylsulfonamido-phenyl)-propionamide], the Ki in test [1] (read-out: Ki (rat) Cap.) was determined as 1 nM. In test [2], this compound came in with an IC50 of 85.3 nM. The “inhibition Bennet model (n = 10)” value in test [3] (0.001 mg/kg body weight po) was 0.001 po 26%. In addition, in test [4], the inhibition in vivo at 0.1 mg/kg came to 19%.

These data come from patent US8710233B2 (Gruenenthal GmbH, priority 2005, dated 2014).
